Source: US4398937A, “Selective algaecides for control of cyanochloronta” (The University of Southern Mississippi, priority 1981, dated 1983)

Legend:
Format in all cases: cell-based
Anabaena sp. = assay: Test tube culture inhibition of Anabaena sp., algal units/ml
Experimental: (§1) The algae used in this particular study were Chlamydomonas sp., Chlorella vulgaris, Anabaena sp., and Anabaena flos-aquae. Cultures of these algae were obtained, subcultured, and aqueous stocks of algae in 400 ml BBM were prepared and were used in log phase growth to innoculate test cultures.
(§2) The fatty acids which were tested as algal inhibitors were 9, 10-dihydroxystearic acid, linoleic acid, dodecanoic acid, and ricinoleic acid.
(§3) The test procedure involved placing 15 ml of BBM into 25 ml test tubes and innoculating them with 0.2 ml of algal stock solution. Twenty test tubes were innoculated with each algae. Four of these cultures were used with each concentration of each of the fatty acids. Four tubes from each set served as controls. Four concentrations of the fatty acids were used for each alga. The concentrations studied were 0.5 PPM, 1.0 PPM, 5.0 PPM, and 10.0 PPM.
(§4) Algal cultures were incubated under constant light of about 200 foot-candles and at a temperature of 68° F. Bold's Basal Medium (BBM), a modification of Bristol's solution was the medium in which all the cultures were grown. Bold's Basal Medium was prepared as follows:
(§5) Concentrations of fatty acids and the amount of stock solution used to prepare them were as follows:
(§6) Each test tube contained 15 ml sterile BBM. To this was added an aliquot of 0.2 of algal stock solution. Then the appropriate aliquots of warm acid stock solution were added to the appropriate number of culture tubes. These cultures were then incubated 5 days and at that point were counted. The same cultures were also counted after a 12 day growth period.
(§7) Stock solutions of the fatty acids to be tested as algal inhibitors were made from a stock solution of 5% sodium bicarbonate in glass-distilled water. The 5% sodium bicarbonate stock solution was made by dissolving 150 grams of sodium bicarbonate in 3000 ml of glass-distilled water. To insure complete dissolution, the solution was heated and stirred on a magnetic stirrer hot plate. The warm solution was used in preparing the fatty acid stock solutions.
(§8) Quanitative phytoplankton values were determined using the random field method. Filaments, colonies, and aggregations of cells were recorded as algal units. Each unit consisted of approximately 6 cells. Unicellular algae were counted as separate units. Algal counts were made from each of three duplicate cultures. One ml of the algal sample was placed in a Sedgwick-Rafter counting chamber, which is 50 mm long by 20 mm, wide by 1 mm deep. A Wild Heerbrugg, compound microscope with a Whipple grid eyepiece was used to determine quantitative algae values.
(§9) One ml of the algal solution was placed in the counting chamber, and two drops of methyl cellulose were added to minimize the movement of Chlamydomonas sp. Ten random fields were counted and all organisms within the Whipple grid field were enumerated.
(§10) The following formula used to calculate the numbers per milliliter from the field counts: [formula] where: C=number of organisms counted,
(§11) The area of the Whipple grid used was 0.46 mm^2, and the depth of a field was 1 mm. Results of the counts were reported as algal units/ml.

Chlamydomonas sp. = assay: Test tube culture inhibition of Chlamydomonas sp., algal units/ml
Experimental: as §1, §2, §3, §4, §5, §6, §7, §8, §9, §10, §11

Anabaena flos-aquae = assay: Test tube culture inhibition of Anabaena flos-aquae, algal units/ml
Experimental: as §1, §2, §3, §4, §5, §6, §7, §8, §9, §10, §11

For `CCCCCCCCC(O)C(O)CCCCCCCC(=O)O` (stereo not shown) [9,10-Dihydroxystearic Acid, 9,10-dihydroxystearic acid], the Algal units/ml (Anabaena sp.; 5 days, 0.5 PPM) was 34130 units/ml, the Algal units/ml (Anabaena sp.; 5 days, 1.0 PPM) was 38043 units/ml and the Algal units/ml (Anabaena sp.; 5 days, 5.0 PPM) was 30217 units/ml. For the same compound, the Algal units/ml (Anabaena sp.; 5 days, 10.0 PPM) was 23261 units/ml, the “inhibition” value (Anabaena sp.; 5 days, 10.0 PPM) was “effective as a inhibitor” and the inhibition of growth at 10 ppm (Anabaena sp.; 288 h, 12 days, 10 PPM, read-out: reduction of algal units/ml, % of the control) was 16.6%. It also gave an Algal units/ml (Anabaena sp.; 12 days, 0.5 PPM) of 158043 units/ml, an Algal units/ml (Anabaena sp.; 12 days, 1.0 PPM) of 166739 units/ml and an Algal units/ml (Anabaena sp.; 12 days, 5.0 PPM) of 106957 units/ml. It also gave an Algal units/ml (Anabaena sp.; 12 days, 10.0 PPM) of 98473 units/ml, an Algal units/ml (Chlamydomonas sp.; 5 days, 0.5 PPM) of 10217 units/ml and an Algal units/ml (Chlamydomonas sp.; 5 days, 1.0 PPM) of 10436 units/ml. For the same compound, the Algal units/ml (Chlamydomonas sp.; 5 days, 5.0 PPM) was 11304 units/ml, the “reduction of number of algal units/ml vs control” value (Chlamydomonas sp.; 5 days, 10 PPM) was 5,000 algal units/ml and the Algal units/ml (Chlamydomonas sp.; 5 days, 10.0 PPM) was 6522 units/ml. For the same compound, the Algal units/ml (Chlamydomonas sp.; 12 days, 0.5 PPM) was 47826 units/ml, the Algal units/ml (Chlamydomonas sp.; 12 days, 1.0 PPM) was 46739 units/ml and the Algal units/ml (Chlamydomonas sp.; 12 days, 5.0 PPM) was 50000 units/ml. The Algal units/ml (Chlamydomonas sp.; 12 days, 10.0 PPM) was 53478 units/ml, the inhibition of growth at 10 ppm (Chlamydomonas sp.; Chlamydomonas, 120 h, 5 days, 10 PPM, read-out: reduction of number of algal units/ml, % of the control) was 43.4% and the Algal units/ml (Anabaena flos-aquae; 5 days, 0.5 PPM) was 4348 units/ml. For the same compound, the Algal units/ml (Anabaena flos-aquae; 5 days, 1.0 PPM) was 4348 units/ml, the “effect on algal growth” value (Anabaena flos-aquae; 5 days, 1.0 PPM and less) was “stimulated” and the Algal units/ml (Anabaena flos-aquae; 5 days, 5.0 PPM) was 2174 units/ml. The Algal units/ml (Anabaena flos-aquae; 5 days, 10.0 PPM) was 217 units/ml, the Algal units/ml (Anabaena flos-aquae; 12 days, 0.5 PPM) was 18478 units/ml and the Algal units/ml (Anabaena flos-aquae; 12 days, 1.0 PPM) was 13478 units/ml. For the same compound, the Algal units/ml (Anabaena flos-aquae; 12 days, 5.0 PPM) was 9130 units/ml, the Algal units/ml (Anabaena flos-aquae; 12 days, 10.0 PPM) was 3261 units/ml and the “effect on algal growth” value (Anabaena flos-aquae; 12 days, all concentrations) was “inhibitory effect”. It also gave an inhibition of growth at 10 ppm (Anabaena flos-aquae; Dolichospermum flos-aquae, 120 h, 5 days, 10 PPM, read-out: reduction of algal units/ml of the control) of 90.9%.
